≈ marks a conversion by molar mass, not a printed value. Where two headings read alike, the source gives them in different places. Values belong to the compound of their own block, whether it stands above or below them.
Assays:
Type in all cases: physicochemical
[1] = HPLC chemical stability after storage at various conditions; settings: for Area Percent at 248 nm T1 week: 1 week; for Area Percent at 248 nm T2 week: 2 weeks; for Area Percent at 248 nm T4 week: 4 weeks; for Area Percent at 248 nm T8 week: 8 weeks; for change in HPLC area percent purity (LCAP): selected storage conditions, time points over eight-week study
Experimental: High-performance Liquid Chromatography (HPLC) analysis was performed to determine the chemical stability of Forms A, B, and C of Compound A after storage at various conditions, using an Agilent 1100 system with DAD. Chemical stability was estimated by measuring and comparing the area percent of the material peak at various time points. For High-performance Liquid Chromatography (HPLC) analysis, an Agilent 1100 system with DAD was used.

[2] = XRPD physical form stability under storage conditions; settings: up to eight weeks
Experimental: XRPD analysis is carried out using a diffractometer running in reflection mode. The 2-theta position is calibrated against a standard before running the experiment. XRPD analysis was carried out on a Panalytical X'Pert^3 Powder XRPD on a Si zero-background holder, scanning the samples between 3 and 40° 2-theta. The 2-theta position was calibrated against Panalytical 640 Si powder standard. The test material was gently compressed on a glass disc inserted into a sample holder. The sample was then loaded into a Panalytical X'Pert^3 Powder XRPD diffractometer running in reflection mode and analyzed, using the following experimental conditions.

[3] = Dynamic Vapor Sorption (DVS); settings: for XRPD pattern after exposure to DVS experiment: 25° C. and RH up to 95%; for water uptake: between 0 and 80% RH at between 25° C. and 45° C.
Experimental: Dynamic Vapor Sorption (DVS) was measured using a SMS (Surface Measurement Systems) DVS Intrinsic. The test was performed at 25° C. while the RH was varied from 0% to 95% at 10% increments in the range of 0% RH-90% RH and at 5% increment up to 95% RH. The change in mass after each increase or decrease in the RH was recorded as a percentage of the original mass of the starting material. Dynamic Vapor Sorption (DVS) was measured using a SMS (Surface Measurement Systems) DVS Intrinsic, using the following parameters: [table]

Solubility estimation = assay: Solubility estimation
Experimental: Solubility of the solid forms of the present application in a variety of solvents is measured. Solvent is added to a sample until the total volume reaches 100 μL, followed by 100 μL per step until the sample is dissolved or the concentration is less than <1.0 mg/mL. The approximate solubility is then calculated.
Solubility of the solid forms of the present application in a variety of solvents was measured according to the following procedures. A sample (˜2 mg) was weighed into a 4-mL glass vial. Solvent was added into the vial stepwise at 50 μL per step until the total volume was 100 μL, followed by 100 μL per step until concentration was less than 1.0 mg/mL. The solutions were mixed thoroughly after each addition by sonication for 2 minutes and vortexing for 1 minute. The addition of solvent was complete if the sample was dissolved or the concentration was <1.0 mg/mL. The volumes of solvent (V1 and V2) were recorded, and approximate solubility was calculated.

Area Percent at 248 nm T1 week ([1]; 25° C./60% RH): 99.9 Area Percent
Area Percent at 248 nm T2 week ([1]; 25° C./60% RH): 99.9 Area Percent
Area Percent at 248 nm T4 week ([1]; 25° C./60% RH): 99.8 Area Percent
Area Percent at 248 nm T8 week ([1]; 25° C./60% RH): 99.9 Area Percent
Area Percent at 248 nm T0 ([1]; 25° C./60% RH): 99.8 Area Percent
Area Percent at 248 nm T1 week ([1]; 40° C./75% RH): 99.8 Area Percent
Area Percent at 248 nm T2 week ([1]; 40° C./75% RH): 99.8 Area Percent
Area Percent at 248 nm T4 week ([1]; 40° C./75% RH): 99.9 Area Percent
Area Percent at 248 nm T8 week ([1]; 40° C./75% RH): 99.9 Area Percent
Area Percent at 248 nm T0 ([1]; 40° C./75% RH): 99.8 Area Percent
Area Percent at 248 nm T1 week ([1]; 55° C./75% RH): 99.9 Area Percent
Area Percent at 248 nm T2 week ([1]; 55° C./75% RH): 99.8 Area Percent
Area Percent at 248 nm T4 week ([1]; 55° C./75% RH): 99.8 Area Percent
Area Percent at 248 nm T8 week ([1]; 55° C./75% RH): 99.9 Area Percent
Area Percent at 248 nm T0 ([1]; 55° C./75% RH): 99.8 Area Percent
Area Percent at 248 nm T1 week ([1]; Ambient): 99.8 Area Percent
Area Percent at 248 nm T2 week ([1]; Ambient): 99.8 Area Percent
Area Percent at 248 nm T4 week ([1]; Ambient): 99.8 Area Percent
Area Percent at 248 nm T8 week ([1]; Ambient): 99.9 Area Percent
Area Percent at 248 nm T0 ([1]; Ambient): 99.8 Area Percent
change in HPLC area percent purity (LCAP) [1]: no significant decrease
change in physical form (XRPD) ([2]; 25° C./60% RH): no change in physical form
change in physical form (XRPD) ([2]; 40° C./75% RH): no change in physical form
change in physical form (XRPD) ([2]; 55° C./75% RH): no change in physical form
change in physical form (XRPD) ([2]; ambient conditions): no change in physical form
hygroscopicity [3]: non-hygroscopic
XRPD pattern after exposure to DVS experiment [3]: does not change
water uptake [3]: less than 0.2 % w/w
solubility (Solubility estimation; 1,4-Dioxane, organic solvent or mixture, thermodynamic from solid, 1,4-Dioxane, read-out: Solubility): 12600 to 25100 µg/mL (≈ 29.2 to 58.2 mM)
solubility (Solubility estimation; 2-MeTHF, organic solvent or mixture, thermodynamic from solid, 2-MeTHF, read-out: Solubility): 5100 to 6380 µg/mL (≈ 11.8 to 14.8 mM)
solubility (Solubility estimation; ACN, organic solvent or mixture, thermodynamic from solid, ACN, read-out: Solubility): 4430 to 5540 µg/mL (≈ 10.3 to 12.8 mM)
solubility (Solubility estimation; Acetone, organic solvent or mixture, thermodynamic from solid, Acetone, read-out: Solubility): 5690 to 8590 µg/mL (≈ 13.2 to 19.9 mM)
solubility (Solubility estimation; CHCl3, organic solvent or mixture, thermodynamic from solid, CHCl3, read-out: Solubility): 25900 to 51800 µg/mL (≈ 60 to 120 mM)
solubility (Solubility estimation; DCM, organic solvent or mixture, thermodynamic from solid, DCM, read-out: Solubility): 1330 to 1440 µg/mL (≈ 3.08 to 3.34 mM)
solubility (Solubility estimation; EtOAc, organic solvent or mixture, thermodynamic from solid, EtOAc, read-out: Solubility): 2370 to 2630 µg/mL (≈ 5.49 to 6.09 mM)
solubility (Solubility estimation; EtOH, organic solvent or mixture, thermodynamic from solid, EtOH, read-out: Solubility): 5140 to 6420 µg/mL (≈ 11.9 to 14.9 mM)
solubility (Solubility estimation; H2O, water, thermodynamic from solid, H2O, read-out: Solubility): < 1000 µg/mL
solubility (Solubility estimation; IPA, organic solvent or mixture, thermodynamic from solid, IPA, read-out: Solubility): 1300 to 1390 µg/mL (≈ 3.01 to 3.22 mM)
solubility (Solubility estimation; IPAc, organic solvent or mixture, thermodynamic from solid, IPAc, read-out: Solubility): 1080 to 1150 µg/mL (≈ 2.5 to 2.66 mM)
solubility (Solubility estimation; MIBK, organic solvent or mixture, thermodynamic from solid, MIBK, read-out: Solubility): 1610 to 1760 µg/mL (≈ 3.73 to 4.08 mM)
solubility (Solubility estimation; MTBE, heated to 50° C.): soluble
solubility (Solubility estimation; MTBE, organic solvent or mixture, thermodynamic from solid, MTBE, read-out: Solubility): < 1000 µg/mL
solubility (Solubility estimation; MTBE, room temperature): insoluble
solubility (Solubility estimation; MeOH, organic solvent or mixture, thermodynamic from solid, MeOH, read-out: Solubility): 9580 to 19200 µg/mL (≈ 22.2 to 44.4 mM)
solubility (Solubility estimation; THF, organic solvent or mixture, thermodynamic from solid, THF, read-out: Solubility): 11000 to 22000 µg/mL (≈ 25.5 to 51 mM)
solubility (Solubility estimation; n-Heptane, organic solvent or mixture, thermodynamic from solid, n-Heptane, read-out: Solubility): < 1000 µg/mL
solubility (Solubility estimation; n-heptane, organic solvent or mixture, thermodynamic from solid, n-heptane, room temperature and when heated to 50° C., read-out: Solubility): < 1000 µg/mL
solubility (Solubility estimation; organic solvent or mixture, thermodynamic from solid, methanol, ethanol, isopropanol, acetone, MIBK, ethyl acetate, isopropyl acetate, tetrahydrofuran, 2-Me-THF, 1,4-dioxane, acetonitrile, dichloromethane, chloroform, toluene, room temperature and 50° C., read-out: Solubility): > 1000 µg/mL
solubility (Solubility estimation; toluene, organic solvent or mixture, thermodynamic from solid, toluene, read-out: Solubility): 1510 to 1610 µg/mL (≈ 3.5 to 3.73 mM)
solubility (Solubility estimation; water, thermodynamic from solid, aqueous solution (water), room temperature and when heated to 50° C., read-out: Solubility): < 1000 µg/mL
SMILES: O=C(Cc1ccc(-c2ccc(OCCN3CCOCC3)cc2)cn1)NCc1ccccc1 [Form C, 2-(5-(4-(2-morpholinoethoxy)phenyl)pyridin-2-yl)-N-benzylacetamide]

Area Percent at 248 nm T1 week ([1]; 25° C./60% RH): 99.8 Area Percent
Area Percent at 248 nm T2 week ([1]; 25° C./60% RH): 99.7 Area Percent
Area Percent at 248 nm T4 week ([1]; 25° C./60% RH): 99.8 Area Percent
Area Percent at 248 nm T8 week ([1]; 25° C./60% RH): 99.8 Area Percent
Area Percent at 248 nm T0 ([1]; 25° C./60% RH): 99.8 Area Percent
Area Percent at 248 nm T1 week ([1]; 40° C./75% RH): 99.8 Area Percent
Area Percent at 248 nm T2 week ([1]; 40° C./75% RH): 99.8 Area Percent
Area Percent at 248 nm T4 week ([1]; 40° C./75% RH): 99.7 Area Percent
Area Percent at 248 nm T8 week ([1]; 40° C./75% RH): 99.8 Area Percent
Area Percent at 248 nm T0 ([1]; 40° C./75% RH): 99.8 Area Percent
Area Percent at 248 nm T1 week ([1]; 55° C./75% RH): 99.8 Area Percent
Area Percent at 248 nm T2 week ([1]; 55° C./75% RH): 99.7 Area Percent
Area Percent at 248 nm T4 week ([1]; 55° C./75% RH): 99.7 Area Percent
Area Percent at 248 nm T8 week ([1]; 55° C./75% RH): 99.7 Area Percent
Area Percent at 248 nm T0 ([1]; 55° C./75% RH): 99.8 Area Percent
Area Percent at 248 nm T1 week ([1]; Ambient): 99.8 Area Percent
Area Percent at 248 nm T2 week ([1]; Ambient): 99.7 Area Percent
Area Percent at 248 nm T4 week ([1]; Ambient): 99.8 Area Percent
Area Percent at 248 nm T8 week ([1]; Ambient): 99.8 Area Percent
Area Percent at 248 nm T0 ([1]; Ambient): 99.8 Area Percent
change in HPLC area percent purity (LCAP) [1]: no significant decrease
change in physical form (XRPD) ([2]; 25° C./60% RH): no change in physical form
change in physical form (XRPD) ([2]; 40° C./75% RH): no change in physical form
change in physical form (XRPD) ([2]; 55° C./75% RH): no change in physical form
change in physical form (XRPD) ([2]; ambient conditions): no change in physical form
hygroscopicity [3]: non-hygroscopic
XRPD pattern after exposure to DVS experiment [3]: does not change
water uptake [3]: less than 0.2 % w/w
thermodynamic aqueous solubility (Solubility estimation; aqueous): below 1.5 mg/ml
aqueous solubility (dissolved completely) (Solubility estimation; aqueous solution (e.g., water), room temperature): > 20000 µg/mL
SMILES: O=C(Cc1ccc(-c2ccc(OCCN3CCOCC3)cc2)cn1)NCc1ccccc1 [Form B, 2-(5-(4-(2-morpholinoethoxy)phenyl)pyridin-2-yl)-N-benzylacetamide]

From patent US11230527B2, “Solid forms of 2-(5-(4-(2-morpholinoethoxy)phenyl)pyridin-2-yl)-n- benzylacetamide” (Athenex HK Innovative Limited, priority 2017, dated 2022)
